# Patent US8034810B2, “Arylsulfonamido-substituted hydroxamic acid derivatives” (Novartis AG, priority 1999, dated 2011)
# pIC50: −log10 of the molar value. Counter-ions that a name gives are not always drawn.
# Biological target: T1, MMP2 (gelatinase A) (Homo sapiens, UniProt P08253)
# T1 construct: made in house; host or cells: Tn insect cells, baculovirus (pFAST BAC 1)
# T1 sequence (P08253 110-660): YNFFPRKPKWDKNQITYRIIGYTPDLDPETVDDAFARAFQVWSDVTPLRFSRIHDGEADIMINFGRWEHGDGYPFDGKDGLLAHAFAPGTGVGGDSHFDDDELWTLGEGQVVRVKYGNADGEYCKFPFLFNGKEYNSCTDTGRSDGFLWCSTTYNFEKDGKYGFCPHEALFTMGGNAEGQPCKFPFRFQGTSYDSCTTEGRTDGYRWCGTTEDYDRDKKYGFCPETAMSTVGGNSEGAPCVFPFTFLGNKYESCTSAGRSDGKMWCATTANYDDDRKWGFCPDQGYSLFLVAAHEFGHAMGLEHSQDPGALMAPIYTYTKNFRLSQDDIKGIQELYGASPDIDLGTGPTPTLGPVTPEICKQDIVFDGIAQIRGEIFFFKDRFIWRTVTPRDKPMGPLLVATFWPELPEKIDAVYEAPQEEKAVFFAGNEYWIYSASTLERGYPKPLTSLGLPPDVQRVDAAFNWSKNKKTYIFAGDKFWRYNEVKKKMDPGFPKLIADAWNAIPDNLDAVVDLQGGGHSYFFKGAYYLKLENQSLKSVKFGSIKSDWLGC
# Assay: In vitro inhibition of MMP2 (gelatinase A), fluorogenic peptide substrate
# Type: biochemical
# Settings: APMA-activated recombinant human proMMP2; substrate 10 μM; 37° C.
# Protocol: The inhibitory activities of compounds of formula I on MT1-MMP, MMP1 (collagenase 1) and MMP2 (gelatinase A) can be determined as follows:
# Stock solutions of substrate (MCA-Pro-Leu-Gly-Leu-Dpa-Ala-Arg-NH2, Knight, C. G., Willenbrock, F., Murphy, G., A novel coumarin-labelled peptide for sensitive continuous assays of the matrix metalloproteinases, FEBS lett., 296, 263-266, (1992)), are prepared in 100% DMSO at a concentration 1.0 mM. Stock solutions of inhibitors are prepared in 100% DMSO. The inhibitor is diluted into the assays from a solution in 100% DMSO, and controls substitute an equal volume of DMSO so that the final DMSO concentration from inhibitor and substrate dilutions in all assays is 6.0%. Assays are performed in assay buffer (150 mM NaCl, 10 mM CaCl2, 50 mM Tris-Cl pH7.5, 0.05% Brij-35) containing 6.0% DMSO once the substrate and inhibitor are diluted into it. The substrate concentration used in the assays is 10 μM. The test is carried out at 37° C. The fluorescence changes are monitored using an excitation wavelength of 320 nm and an emission wavelength of […]. The reaction mixture is added in duplicate to appropriate wells of a 96 well microfluor plate. The reaction mixture is preincubated with the inhibitor for 30 min, the reaction is started by the addition of MMP enzyme and the fluorescence intensity is measured for 10 min. A time point that is on a linear part of the curve is chosen to determine the activity. The inhibition results are expressed as the inhibitor concentrations that produced 50% inhibition (IC50) of the activity in the control (non-inhibited) reaction. In this test, the compounds of the formula I and their pharmacologically acceptable salts have an inhibiting concentration IC50 [μmol/litre] of 0.0001 and 0.030, usually of 0.0002 to 0.010, for MMP2 and an inhibiting concentration IC50 [μmol/litre] of 0.0005 and 0.125, usually of 0.001 to 0.05, for MT1-MMP.
# Plasmid: The cDNA for human proMMP2 is supplied by Prof. Motoharu Seiki, Institute of Medical Science, The University of Tokyo. The cDNA encoding a full length on human pro-MMP2 is generated by PCR of cDNA derived from RNA isolated from human HT1080 cells (ATCC# CCL121). The primers to generate this cDNA are GAATTCGATGGAGGCG CTAATGGCCCGG and […] corresponding to full length human pro-MMP2 of the reported cDNA sequence, GenBank accession number J03210. The resulting 2.0 Kb PCR fragment is cloned into EcoR1/Xho 1 site of pFAST BAC 1 vector (pBAC-MMP2) (Collier, I. E., Wilhelm, S. M., Eisen, A. Z., Manner, B. L., Grant, G. A., Seltzer, J. L., Kronberger, A., He, C., Bauer, E. A. and Goldberg, G. I. J. Biol. Chem., 263:6579-6587, 1988).
# Expression and Purification: For baculovirus expression of r-proMMP2, pBAC-MMP2 is transformed into DH10BAC competent cells to produce a r-proMMP2 bacmid DNA. The recombinant bacmid DNA is transfected into cultured insect cells (Tn cells) with Cellfectin reagent (Gibco BRL). Recombinant baculovirus are plaque purified to homogeneity and are used to generate high titer stocks of the recombinant baculovirus. Expression of r-proMMP2 is confirmed by gelatin zymography.
# Culture fluids of Tn cells infected with baculovirus are centrifuged and filtrated through a […] pore size filter to remove cell debris. The recombinant proMMP2 as absorbed to gelatin Sepharose 4B (Pharmacia Biotech) in equilibration buffer of in 25 mM Tris-HCl (pH 7.5), 1 M NaCl, 10 mM CaCl2, 0.05% Briji 35 at 4° C. After washing the beads with equilibration buffer, r-proMMP2 as eluted with equilibration buffer containing 10% DMSO. The enzyme are stored at 4° C. until activation. For assay, the purified proMMP2 is activated with 1 mM APMA for 1 hr at 37° C.
row,pIC50,Compound
1,8.10,"C=CCCOc1ccc(S(=O)(=O)N(CC(=O)NO)Cc2ccc(-n3ccnc3)cc2)cc1 [Example 80, 2-[(4-But-3-enyloxy-benzenesulfonyl)-(4-imidazol-1-yl-benzyl)-amino]-N-hydroxy-acetamide-hydrochloride]"
2,8.68,"C=CCCOc1ccc(S(=O)(=O)N(CC(=O)NO)Cc2cccc(F)n2)cc1 [Example 83a, 2-([4-But-3-enyloxy-benzenesulfonyl]-(6-fluoro-pyridine-2-yl)methyl-amino)-N-hydroxyacetamide]"
3,9.70,"C=CCCOc1ccc(S(=O)(=O)N(CC(=O)NO)Cc2ccc(-n3cncn3)cc2)cc1 [Example 79, 2-[(4-but-3-enyloxy-benzenesulfonyl)-(4-[1,2,4]triazol-1-yl-benzyl)-amino]-N-hydroxy-acetamide-hydrochloride salt]"
4,7.83,"C=CCCOc1ccc(S(=O)(=O)N(CC(=O)NO)Cc2ccc(N3CCCC3)cc2)cc1 [Example 84a, 2-[(4-But-3-enyloxy-benzenesulfonyl)-(4-(pyrrolidin-1-yl)-benzyl)-amino]-N-hydroxyacetamide-hydrochloride]"
5,9.15,"COc1ccc(CN(CC(=O)NO)S(=O)(=O)c2ccc(OCCCCl)cc2)cc1 [Example 68, 2-{[4-(3-chloro-propoxy)-benzenesulfonyl]-(4-methoxy-benzyl)amino}-N-hydroxy-acetamide]"
6,7.98,"C=CCCOc1ccc(S(=O)(=O)N(CC(=O)NO)Cc2ccc(N3CCOCC3)cc2)cc1 [Example 81, 2-[(4-But-3-enyloxy-benzenesulfonyl)-(4-morpholin-4-yl-benzyl)-amino]-N-hydroxy-acetamide-hydrochloride]"
7,9.00,"C#CCOc1ccc(S(=O)(=O)N(CC(=O)NO)Cc2ccc(OC)cc2)cc1 [Example 75, [(4-methoxy-benzyl)-[4-prop-2-ynyloxy-benzenesulfonyl]-amino]-N-hydroxy-acetamide]"

row,Compound,pIC50
1,"2-[(Cyclopropylmethoxy-benzenesulfonyl)-(4-[1,2,4]triazol-1-yl-benzyl)-amino]-N-hydroxyacetamide-hydrochloride salt [Example 82b]",7.98
2,O=C(CN(Cc1ccc(-n2cncn2)cc1)S(=O)(=O)c1ccc(OCCC2CC2)cc1)NO [Example 82a],7.40
3,O=C(CN(Cc1ccc(-n2cncn2)cc1)S(=O)(=O)c1ccc(OCc2ccoc2)cc1)NO [Example 82c],8.28
